Patent publication US20220323437A1, “METHODS FOR TREATING PULMONARY ARTERIAL HYPERTENSION” (ACTELION PHARMACEUTICALS LTD, priority 2019, published 2022)
Where two headings read alike, the source gives them in different places.

Assays:
[1] = Vital signs, ECG, laboratory variables and WHO FC during switch from oral to i.v. selexipag in subjects with stable PAH; type: in vivo, human
Procedure: This was a prospective, multicenter, open-label, single-sequence, cross-over, Phase 3 study. Based on the dose of selexipag received at study entry, subjects were allocated to one of the following groups, selexipag 200-1000 μg b.i.d. or selexipag 1200-1600 μg b.i.d. See, FIG. 1. The study comprised the following periods: (ii) Treatment and observation period: The treatment and observation period included the following consecutive periods: • Period 1 included oral selexipag pre-treatment period for 1 day, in-hospital. This period started with intake of the morning dose of oral selexipag on Day 1 at Visit 2 and ended the following day, before initiation of the first infusion of i.v. selexipag. • Period 2 included i.v. selexipag treatment period for 36 hours [3 infusions], in-hospital. This period started in the morning of Day 2 at Visit 2 with the start of the first infusion of i.v. selexipag and ended in the evening of Day 3 at Visit 2 before the evening administration of oral selexipag. Administration of oral selexipag was interrupted during the i.v. selexipag treatment period. • Period 3 included oral selexipag post-treatment period for 7 to 11 day. This period started in the evening of Day 3 at Visit 2 with the administration of oral selexipag and ended 7-11 days later, at Visit 3. The endpoints analyzed for (i) Period 1, Period 2, and Period 3 and follow-up period combined (ii) Period 1 and Period 2 combined, and (iii) Period 2 and Period 3 combined included discontinuations due to prostacyclin-associated AEs, discontinuations due to any AEs, AEs and SAEs, prostacyclin-associated AEs, PAH-related AEs, change from baseline in vital signs (systolic blood pressure [SBP], diastolic blood pressure [DBP], and pulse rate) and body weight, ECG abnormalities, marked laboratory abnormalities, and change from baseline in WHO FC.

[2] = Pharmacokinetics of selexipag and ACT-333679 after oral and i.v. selexipag in subjects with stable PAH (Phase 3 switch study); type: in vivo, human; settings: for AUC / Cmax: human, plasma, steady state; for AUC: read-out: AUCτ, ss Geom. Mean; for Cmax: read-out: Cmax, ss Geom. Mean
Procedure: This was a prospective, multicenter, open-label, single-sequence, cross-over, Phase 3 study. Based on the dose of selexipag received at study entry, subjects were allocated to one of the following groups, selexipag 200-1000 μg b.i.d. or selexipag 1200-1600 μg b.i.d. See, FIG. 1. The study comprised the following periods:
(ii) Treatment and observation period: The treatment and observation period included the following consecutive periods: • Period 1 included oral selexipag pre-treatment period for 1 day, in-hospital. This period started with intake of the morning dose of oral selexipag on Day 1 at Visit 2 and ended the following day, before initiation of the first infusion of i.v. selexipag. • Period 2 included i.v. selexipag treatment period for 36 hours [3 infusions], in-hospital. This period started in the morning of Day 2 at Visit 2 with the start of the first infusion of i.v. selexipag and ended in the evening of Day 3 at Visit 2 before the evening administration of oral selexipag. Administration of oral selexipag was interrupted during the i.v. selexipag treatment period. • Period 3 included oral selexipag post-treatment period for 7 to 11 day. This period started in the evening of Day 3 at Visit 2 with the administration of oral selexipag and ended 7-11 days later, at Visit 3.
Selexipag was provided as a dry powder to be reconstituted as an injectable solution for i.v. administration. Before administration, selexipag dry powder was to be reconstituted and diluted with sterile 0.9% NaCl solution. Each subject received an i.v. selexipag dose that corresponded to the subject's individual stable dose of oral selexipag. […] See, Table 4.
The intravenous infusion took place over a 87-minute period (2 infusions on Day 2 and 1 infusion on Day 3)
The following PK endpoints were analyzed for selexipag and its active metabolite, ACT-333679, after oral selexipag in Period 1 and after i.v. selexipag administration in Period 2. See, FIG. 2. • The area under the plasma-concentration time curve (AUC) during a dose interval at steady state (AUCτ, ss). • The maximum plasma concentration at steady state (Cmax, ss). • The time to reach maximum plasma concentration at steady state (tmax, ss). • Trough plasma concentration at steady state (Ctrough, ss).

[3] = Period 1 (oral selexipag), total, N = 20
[4] = Period 2 (iv selexipag), total, N = 20
[5] = Period 2, high dose cohort (1200-1600 μg), N = 12
[6] = Period 2, low dose cohort (200-1000 μg), N = 8
[7] = Period 3 (oral selexipag) + Follow-up, total, N = 20

## CC(C)N(CCCCOCC(=O)NS(C)(=O)=O)c1cnc(-c2ccccc2)c(-c2ccccc2)n1 [selexipag, 2-{4-[(5,6-diphenylpyrazin-2-yl)(propan-2-yl)amino]butoxy}-N-(methanesulfonyl)acetamide]
[1]; [3]
  Incidence of DBP < 50 (mmHg): 0 n (%)
  Incidence of DBP decrease from baseline > 20 (mmHg): 1 (5.0) n (%)
  Incidence of DBP ≥ 100 (mmHg): 0 n (%)
  Incidence of SBP < 90 (mmHg): 0 n (%)
  Incidence of SBP decrease from baseline > 40 (mmHg): 0 n (%)
  Incidence of SBP ≥ 160 (mmHg): 0 n (%)
[1]; Period 2
  subjects with QTcF prolongation to >450 ms: 3 subjects
  subjects with QTcF prolongation to >480 ms: 4 subjects
[1]; [4]
  Incidence of DBP < 50 (mmHg): 5 n (%)
  Incidence of DBP decrease from baseline > 20 (mmHg): 3 n (%)
  Incidence of DBP ≥ 100 (mmHg): 0 n (%)
  Incidence of SBP < 90 (mmHg): 2 n (%)
  Incidence of SBP decrease from baseline > 40 (mmHg): 2 n (%)
  Incidence of SBP ≥ 160 (mmHg): 1 n (%)
[1]; Period 2, infusion 1
  mean change from pre- to post-infusion in heart rate: 2.1 bpm
[1]; Period 2, infusion 2
  mean change from pre- to post-infusion in heart rate: 0.1 bpm
[1]; Period 2, infusion 3
  mean change from pre- to post-infusion in heart rate: 3.5 bpm
[1]; [5]
  Incidence of DBP < 50 (mmHg): 3 n (%)
  Incidence of DBP decrease from baseline > 20 (mmHg): 2 n (%)
  Incidence of DBP ≥ 100 (mmHg): 0 n (%)
  Incidence of SBP < 90 (mmHg): 1 n (%)
  Incidence of SBP decrease from baseline > 40 (mmHg): 1 n (%)
  Incidence of SBP ≥ 160 (mmHg): 1 n (%)
[1]; [6]
  Incidence of DBP < 50 (mmHg): 2 (25.0) n (%)
  Incidence of DBP decrease from baseline > 20 (mmHg): 1 (12.5) n (%)
  Incidence of DBP ≥ 100 (mmHg): 0 n (%)
  Incidence of SBP < 90 (mmHg): 1 (12.5) n (%)
  Incidence of SBP decrease from baseline > 40 (mmHg): 1 (12.5) n (%)
  Incidence of SBP ≥ 160 (mmHg): 0 n (%)
[1]; [7]
  Incidence of DBP < 50 (mmHg): 0 n (%)
  Incidence of DBP decrease from baseline > 20 (mmHg): 2 (10.0) n (%)
  Incidence of DBP ≥ 100 (mmHg): 0 n (%)
  Incidence of SBP < 90 (mmHg): 0 n (%)
  Incidence of SBP decrease from baseline > 40 (mmHg): 0 n (%)
  Incidence of SBP ≥ 160 (mmHg): 0 n (%)
[1]; Visit 2 Day 2 prior to the start of i.v. infusion
  subjects (of the 7 with QTcF prolongation in Period 2) who already had QTcF prolongation to >450 ms in Period 1: 6
[1]; any subject
  AE of hypotension: no AE of hypotension
  changes in systolic blood pressure of >40 mmHg: No changes
[1]; at Visit 3 (Day 12±2 days)
  hemoglobin, mean change from baseline: 1.2 g/L
[1]; baseline (129.4 g/L) to Visit 2 Day 3
  hemoglobin, mean change from baseline: -5.7 g/L
[1]; during the study, any subject
  changes in WHO FC: No changes
[1]; human, in vivo
  changes from baseline in other hematology and clinical chemistry variables: unremarkable
[2]; Period 2 vs Period 1
  tmax, ss between the i.v. and oral selexipag periods: comparable
[2]; after i.v. selexipag, 450-1800 μg b.i.d. dose range
  slope of dose proportional increase in exposure: 0.798
[2]; iv, Period 2 (i.v. selexipag)
  AUC: 18.8 ng·h/mL
  Cmax: 7.8 ng/mL
[2]; Period 1 (oral selexipag)
  AUC: 8.7 ng·h/mL
  Cmax: 3.9 ng/mL
[2]; i.v. to oral dose ratio 1.125
  dose-normalized geometric mean ratio (i.v./oral selexipag) for AUCτ, ss (90% CI): 2.13 (1.67, 2.70)
  dose-normalized geometric mean ratio (i.v./oral selexipag) for Cmax, ss (90% CI): 1.98 (1.62, 2.43)
